For this experiment, the target named is T1, GluK1 (Rattus norvegicus, UniProt P22756, DEL560-681).
T1 sequence (P22756 446-559): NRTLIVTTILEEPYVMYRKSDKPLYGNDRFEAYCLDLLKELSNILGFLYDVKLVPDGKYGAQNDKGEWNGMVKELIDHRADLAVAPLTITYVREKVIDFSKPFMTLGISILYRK
T1 sequence (P22756 682-821): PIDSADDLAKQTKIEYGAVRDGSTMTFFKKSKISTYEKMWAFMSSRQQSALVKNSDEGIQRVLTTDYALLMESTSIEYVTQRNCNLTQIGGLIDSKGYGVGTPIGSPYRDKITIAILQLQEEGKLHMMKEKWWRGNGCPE
As to the kind of experiment: crystal structure. The format is binding.

As a reminder, the Kd is the constant that tells how readily two partners part at equilibrium. A low value points to tighter binding. Take `N[C@@H](Cn1cc(Br)c(=O)n(Cc2ccsc2C(=O)O)c1=O)C(=O)O` [UBP318, (S)-1-(2-amino-2-carboxyethyl)-5-bromo-3-(2-carboxythiophene-3-yl-methyl)pyrimidine-2,4-dione]: the affinity, expressed as Kd, was 186 nM.

The compound `Cc1cn(C[C@H](N)C(=O)O)c(=O)n(Cc2c(C(=O)O)sc(Br)c2Br)c1=O` [UBP315, (S)-1-(2-Amino-2-carboxyethyl)-3-(2-carboxy-4,5-dibromothiophene-3-yl-methyl)-5-methylpyrimidine-2,4-dione] showed an equilibrium dissociation constant (Kd) of 33 nM.

Source of the values: paper PMC2976827 (Neuropharmacology, 2010).
